How the values were obtained:
thrombin generation = experiment: Thrombin generation assay in platelet poor or platelet rich plasma (RFU); type: biochemical, human; conditions: betrixaban 250 nM; all rfVIIa concentrations tested
aPTT of human plasma = experiment: aPTT clotting assay with MLA Electra 800 automatic coagulation timer; type: biochemical
[1] = in vivo; cited from earlier work

SMILES	inhibition of fXa by betrixaban in the presence of rfVIIa (thrombin generation)	aPTT (aPTT of human plasma; 300 nM Betrixaban alone)	aPTT (aPTT of human plasma; 400 nM Betrixaban alone)	extension of aPTT (aPTT of human plasma; 400 nM betrixaban)	reported therapeutic concentration [1]
COc1ccc(NC(=O)c2ccc(C(=N)N(C)C)cc2)c(C(=O)Nc2ccc(Cl)cn2)c1 [betrixaban, [2-({4-[(dimethylamino)iminomethyl]phenyl}carbonylamino)-5-methoxyphenyl]-N-(5-chloro(2-pyridyl))carboxamide]	about 75%	61.8 s	66.3 s	more than two folds	
O=C(NC[C@H]1CN(c2ccc(N3CCOCC3=O)cc2)C(=O)O1)c1ccc(Cl)s1 [rivaroxaban]					approximately 600 nM

Source: US10954503B2, “Antidotes for factor Xa inhibitors and methods of using the same” (Alexion Pharmaceuticals, Inc., priority 2007, dated 2021)
